# Literature values as cited in patent US20040224037A1, “Devastating treatment against hiv/aids with capsaicin” (priority 2003, published 2004).
# Like-named read-outs stand apart in the source and are kept apart here. Ends that are not written are not given here.
# Columns and labels:
# [1] = system: proliferating macrophages from the blood of four patients with AIDS dementia
# masT cells = conditions: suspensions of mast cells in rats
# [2] = system: guinea pig peritoneal macrophages
# macrophages = conditions: in vitro
# rats [3] = conditions: for blood pressure and heart rate after pretreatment: previous anesthesia, Capsaicin pretreatment 100 mg during four days
# tongue = conditions: Nelson 1910
# substance p(sp) = conditions: pretreatment with Capsaicin in rats
# b-endorphin = conditions: rats; 3,5,7 and 15 days after Capsaicin administration
# [4] = system: histamine and 5-hydroxitryptamine; conditions: treatment with Capsaicin in rats
# herpes simplex = conditions: sc. administration, rats infected with herpes simplex
# [5] = system: [4-(methylnitrosamino)-1-(3-pyridyl)-1-butanone] nnk
# rats [6] = conditions: higher doses reduced acid output
# [7] = system: intestinal glucose absorption; conditions: 140 mcg/ml, rats in vitro
# [8] = Capsaicin administration at high concentration
# [9] = system: enzyme (cyp2e1) of cytochrome p4502e1; conditions: in the liver
# Sequence of enzyme (cyp2e1) of cytochrome p4502e1 (P05181 whole entry, species assumed): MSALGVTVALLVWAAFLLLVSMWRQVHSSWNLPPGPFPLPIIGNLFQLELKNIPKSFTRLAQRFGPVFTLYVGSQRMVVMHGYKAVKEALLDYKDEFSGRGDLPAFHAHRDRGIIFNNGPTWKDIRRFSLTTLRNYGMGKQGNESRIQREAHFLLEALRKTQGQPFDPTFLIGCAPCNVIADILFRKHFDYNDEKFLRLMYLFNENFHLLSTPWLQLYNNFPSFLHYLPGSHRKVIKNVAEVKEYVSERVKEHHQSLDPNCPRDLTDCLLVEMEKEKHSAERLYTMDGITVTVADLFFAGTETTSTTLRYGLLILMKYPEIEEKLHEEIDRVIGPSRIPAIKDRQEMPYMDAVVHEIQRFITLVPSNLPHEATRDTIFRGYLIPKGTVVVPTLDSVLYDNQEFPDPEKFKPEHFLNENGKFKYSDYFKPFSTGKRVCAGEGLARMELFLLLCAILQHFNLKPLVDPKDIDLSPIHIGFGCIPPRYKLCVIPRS
# cats and dogs = conditions: 50 mcg/kg iv. in cats and dogs
# dogs [10] = conditions: 10 mcg/kg iv. in dogs
# rats [11] = conditions: 18 mcg/kg injected, anesthesia, pretreatment 4,8,16 and 200 mg/kg each 12 hours
# dogs [12] = system: dogs
# rats [13] = conditions: iv. treatment, also printed 0.5 mg/kg
# Sprague-Dawley cd rats = conditions: pregnant rats, 0, 500 or 5000 mg/kg/day
# nk cells = conditions: deviation of more or less 11.5%
molecule,measurement,setting,value
"CCNCCCNC[C@@H]1C[C@@H]1CNCCCNCC.Cl.Cl.Cl.Cl [SL-11037, n-ethyl-n′-(2-(3′-ethylamino-propylaminomethyl)-cis-cyclopropylmethyl)-propane 1,3-diamine tetrahydrochloride]",effect on proliferating macrophages,[1],potent effect of inhibition
CCO [ethanol],blood alcohol concentration,human; 0.5 fluid ounces (about 15 ml) in a 150 pound human,0.02%
same,blood alcohol concentration that starts to produce measurable mental impairment,human; in vivo,0.05%
same,fraction processed by the liver,human; in vivo,over 90%
"CCNCCCNCCCNCCCNCC [Denop, diethylnospermine]",effect on proliferating macrophages,[1],potent effect of inhibition
"kallidin: neuropeptide provoking histamine release (KRPPGFSPFR; Lysyl-bradykinin; UniProt P01042 380-389, looked up)","power in provoking histamine release, compared with substance p and polisteskinin",masT cells,Less powerful
"arg-pro-lys-pro-gln-gln-phe-phe-gly-leu-met-nh2 (RPKPQQFFGLM-NH2; UniProt P20366 58-68, looked up) [Substance p (sp), undecapeptide neuropeptide]",phagocytosis,macrophages of mice,stimulates phagocytosis
same,phagocytosis,human leucocytes,stimulates phagocytosis
same,"macrophage activation, liberation of reactive oxygen species",[2],activated such macrophages
methionyl-lysyl-bradykinin,"power in provoking histamine release, compared with substance p and polisteskinin",masT cells,Less powerful
"COc1cc(CNC(=O)CCCCCCC(C)C)ccc1O [dihydroCapsaicin, 8-methylnonanoic acid vanillylamide]",effect on growth / activity,Bacillus cereus,did not show activity
same,effect on growth / activity,Clostridium sporogenes,did not show activity
same,effect on growth / activity,Bacillus subtilis,did not show activity
same,effect on growth / activity,Streptococcus pyogenes,did not show activity
same,activity,Candida albicans,did not show activity
same,activity,Salmonella typhimurium,did not show activity
same,activity,Staphylococcus aureus,did not show activity
same,activity,Escherichia coli,did not show activity
C=CCc1ccc(O)c(OC)c1 [eugenol],"concentration required to completely inhibit reactive oxygen species, compared with Capsaicin",macrophages,Higher concentrations
CN1[C@@H]2CC[C@H]1C[C@@H](OC(=O)C(CO)c1ccccc1)C2 (some centres unmarked) [atropine],counteraction of the effect of Capsaicin,"rats [3]; rat, in vivo",able to counteract the effect of Capsaicin
CCNCCCNC/C=C/CNCCCNCC [SL-11048],effect on proliferating macrophages,[1],potent effect of inhibition
"COc1cc(CNC(=O)CCCC/C=C/C(C)C)ccc1O [Capsaicin, 8-methyl-n-vanillyl-6-nonenamide]",concentration giving perceptible warmth on tongue,tongue; 1 ppm,1 µg/mL
same,concentration giving persistent burning on tongue,tongue; 10 ppm,10 µg/mL
same,effect upon the substance p(sp) at intestinal level,substance p(sp),did not have effect
same,b-endorphin concentration in the hypothalamus,b-endorphin,decreased
same,histamine and 5-hydroxitryptamine,[4],increment
same,"production of anions superoxides, peroxide of hydrogen and nitrites by macrophages",macrophages; 10 mcm,completely inhibited
same,effect on growth / activity,Bacillus cereus,did not show activity
same,effect on growth / activity,Clostridium sporogenes,did not show activity
same,effect on growth / activity,Bacillus subtilis,did not show activity
same,effect on growth / activity,Streptococcus pyogenes,did not show activity
same,activity,Candida albicans,did not show activity
same,activity,Salmonella typhimurium,did not show activity
same,activity,Staphylococcus aureus,did not show activity
same,activity,Escherichia coli,did not show activity
same,mortality,herpes simplex,reduced mortality
same,effect on tobacco specific carcinogen nnk,[5],inhibited
same,growth (cancer),cancer,inhibit growth at low concentration
same,time for area of hyperalgesia to reach a maximum,humans; 10 mcg intradermal,≤ 5 min
same,time to disappearance of hyperalgesia,humans; 10 mcg intradermal,≤ 15 min
same,time for area of hyperalgesia to reach a maximum,humans; 100 mcg intradermal,≤ 7 min
same,time to disappearance of hyperalgesia,humans; 100 mcg intradermal,≤ 137 min
same,dose at which acid secretory response reached a maximum,rats [6],1 mg/kg
same,intestinal glucose absorption,[7],inhibitory effect
same,time after which recovery of the desensitization is not complete,[8],> 60 days
same,activity of enzyme cyp2e1,[9],capable to inhibit
same,GLINSUKON EXP (LD50),"mice; ig. adm, mice",67 mg/kg
same,"GLINSUKON EXP (LD50), value in brackets","mice; ig. adm, mice, second value in brackets",190 mg/kg
same,GLINSUKON EXP (LD50),"mice; iv. adm, mice",0.5 mg/kg
same,LD50,"mice; iv., male mice",0.56 mg/kg
same,GLINSUKON EXP (LD50),"mice; sc. adm, mice",8.5 mg/kg
same,toxicity effect measured by LD50 compared between routes,"mice; sc., im., and intraperitoneal (ip.), mice",similar
same,effect of iv. dose,cats; 200 mcg/kg iv. in cats,"bradycardia, apnea"
same,tension reduction,cats; 200 mcg/kg iv. in cats,46 mmhg
same,effect of iv. dose,cats; 400 mcg/kg iv. in cats,higher post-hypotension and a second period of apnea
same,blood pressure,cats and dogs,fast fallen in blood pressure
same,"drop of the pulse, first value",cats and dogs,108 min⁻¹
same,"drop of the pulse, second value",cats and dogs,24 min⁻¹
same,subsequent tachycardia,cats and dogs,160 min⁻¹
same,effect of iv. dose,dogs [10],"apnea, bradycardia, hypotension"
same,blood pressure and heart rate after pretreatment,"rats [3]; 1 mcg injected, rats",normal blood pressure and rate of the heart
same,effect of iv. dose on blood pressure and heart rate,rats [3]; 1 mcg or 3 mcg/kg iv. in rats,reproduced three phases
same,blood pressure and heart rate after pretreatment,rats [3]; 50 mcg slow infusion over 12 mins,normal blood pressure and rate of the heart
same,Bezold-Jarisch reflex after pretreatment,rats [11],significant inhibition of the Bezold-Jarisch reflex
same,respiratory effect,"dogs [12]; administration rate 10-20 mcg/kg/min, dogs","fast superficial respiration, but without apnea"
same,respiratory effect,"dogs [12]; injected 0.5-20 mcg/kg, dogs anesthetised with chloralose","apnea, followed by a fast superficial respiration"
same,letal dose,rats [13],0.5 mg/kg
"CCNCCCNC[C@@H]1CC[C@H]1CNCCCNCC.Cl.Cl.Cl.Cl (relative stereo) [SL-11038, N-ethyl-N′-(2-(3′-ethylamino-propylaminomethyl)-trans-cyclobutylmethyl)-propane 1,3-diamine tetrahydrochloride]",effect on proliferating macrophages,[1],potent effect of inhibition
polyoxyethylene sorbitan monooleate [tw80],signs of toxicity,Sprague-Dawley cd rats,no dose-related signs of toxicity
"b-endorphin: group of protein with potent analgesic properties that occur naturally in the brain (YGGFMTSEKSQTPLVTLFKNAIIKNAYKKGE; Beta-endorphin; UniProt P01189 237-267, looked up)",proliferative response of lymphocytes,lymphocytes,increases
same,increase of activity of nk cells,nk cells,30.5%
"CCNCCCNC/C=C\CNCCCNCC.Cl.Cl.Cl.Cl [SL-11047, N′-bis (3-ethylaminopropyl)-cis-but-2-ene-1,4-diamine tetrahydrochloride]",effect on proliferating macrophages,[1],potent effect of inhibition
"CCNCCCCNCCCCNCCCCNCCCCNCC [BE-4444, 1,19-bis(ethylamino)-5,10,15-triazanonadecane]",effect on proliferating macrophages,[1],potent effect of inhibition
"CCNCCCNC[C@@H]1C[C@H]1CNCCCNCC.Cl.Cl.Cl.Cl (relative stereo) [SL-11044, N-ethyl-N′-(2-(3′-ethylamino-propylaminomethyl)-trans-cyclopropylmethyl)-propane 1,3-diamine tetrahydrochloride]",effect on proliferating macrophages,[1],potent effect of inhibition
